Reference: paper PMC5742583, “A Functional Analysis on the Interspecies Interaction between Mouse LFA-1 and Human Intercellular Adhesion Molecule-1 at the Cell Level” (Frontiers in Immunology, 2017)
Where no end group is shown, it is not given here.

What was measured:
[1] = system: mouse B cells (ICAM-1/LFA-1 interaction); assay: Homotypic B cell aggregation assay; type: cell-based; details: splenocytes activated with PHA and ionomycin, overnight 37°C
Protocol: To obtain these cells, mice were sacrificed by cervical dislocation, the spleens were removed, and splenocytes were isolated and resuspended in RPMI 10% FBS at a final concentration of 10^6 cells/ml. Cells were treated with 10 µg/ml PHA and 1 µg/ml ionomycin to activate LFA-1 and incubated at 37°C 5% CO2 overnight in flat bottom 96-well plates (10^5 cells) in the presence of peptides from LFA-1 and c-Myc (control) 250 µM, D1D2, D1D2Fc, and human IgG1 10 µg, EGTA 1 mM and lovastatin 100 µM. A qualitative aggregation assay was carried out as described ([36], [41]) with a slight modification. Briefly, positive control stimulated cell samples were arbitrarily assigned a clumping index of 10 and lovastatin samples an index of 1. Test samples were ranked from 1 to 10 based upon degree of clumping relative to stimulated and lovastatin-treated samples. Results were verified by a blind independent rating performed by a second observer.
Fresh mouse B cells were obtained from splenocytes and stimulated with PHA and ionomycin to induce homotypic adhesion. The results were quantified by establishing a clumping index that represents the degree of cell aggregation, which reflects the inhibition efficiency (Figure 3B). Cell aggregation was ranked by a clumping index from 1 to 10 based on the degree of aggregation in comparison with the stimulated cells (positive control, clumping index = 10).
Figure 3 Effect of human (ICAM-1) on the aggregation of mouse spleen cells. (A) Splenocytes isolated from mice were non treated (a) or activated with PHA (b–i) as described in Section “Experimental Procedures” and further incubated overnight with (b) medium; (c) IgG1; (d) c-Myc peptide; (e) EGTA; (f) lovastatin; (g) D1D2; (h) D1D2Fc; (i) mouse LFA-1 peptide CD11a235–259. Images were taken with an optical microscope (original magnification, 10×). Representative images from two independent experiments with similar results are shown. (B) The graph represents the rate of agglutination depending on the inhibitory effect on ICAM-1/LFA-1 interaction. Cells stimulated with PHA and ionomycin, which served as a positive control, were arbitrarily assigned agglutination index 10, which represents a percentage of aggregation between 90 and 100%. Homotypic aggregation was classified from 1 to 10 depending on the degree of aggregation relative to cells stimulated. The result was verified by a second independent observer. Values are presented as mean ± SEM of two separate experiments performed by duplicate. Statistical analysis was performed using two-way analysis of variance with Bonferroni’s posttest comparing with c-Myc peptide control. *p < 0.05; ***p < 0.001.

[2] = system: gp33-pulsed EL4 cells killed by mouse Tc cells (ICAM-1/LFA-1); assay: CD8+ T cell-mediated cytotoxicity on EL4; type: cell-based; details: preincubation 45 min 37°C, effector:target 10:1, 4 h
human monocytes = assay: Human monocyte adhesion to plastic (MTT); type: cell-based; details: lovastatin 100 µM, 37°C overnight
Protocol: (§1) Monocytes were isolated from human peripheral blood mononuclear cells (PBMCs), obtained from healthy donors (Blood and Tissue Bank of Aragon; approved by the CEICA, number: C.I.PI11/006) by density gradient centrifugation using Ficoll-Paque (GE healthcare). PBMCs were resuspended at a concentration of 2.5 × 10^6 cells/ml in RPMI medium supplemented with 1% heat-inactivated human AB serum (Sigma). Cells were cultured in a Petri dish for 2 h at 37°C 5% CO2. […]
(§2) Freshly isolated monocytes or differentiated macrophages were washed twice with PBS and incubated with trypsin (PAN Biotech) for 30 min at 37°C 5% CO2. […] Next day, every well was washed twice with PBS, complete RPMI medium was added and the number or adherent remaining cells was quantified by a MTT colorimetric test ([38]). […]
(§3) Figure 6 LFA-1 is involved in human macrophage adhesion. […] (B) Macrophage phenotype was analyzed by flow cytometry testing the expression of HL-DR, CD14, CD54, and CD11a. […] Subsequently, every well was washed twice with PBS to remove non-adherent cells and quantification of cell adhesion was carried out by MTT as described in Section “Experimental Procedures.” Values are presented as mean ± SEM of three independent experiments performed by duplicate. […]

human macrophages = assay: Human macrophage adhesion to plastic (MTT); type: cell-based; details: lovastatin 100 µM, 37°C overnight
Protocol: as §1, §2, §3

mouse macrophages = assay: Mouse macrophage adhesion to uncoated plastic (MTT); type: cell-based; details: lovastatin 100 µM, 37°C overnight
Protocol: Mouse macrophages were differentiated from mouse bone marrow as previously described ([37]). Briefly, bone marrow cells isolated from mouse femur were cultured in DMEM 10% FBS, 5% horse serum, and 30% supernatant of L929 cell culture as a source of M-CSF at a density of 10^6/cm^2 for 7–8 days. Macrophage differentiation was analyzed in the same way as human macrophages but using CD11b-APC and CD11c-PE (BD) antibodies.
Freshly isolated monocytes or differentiated macrophages were washed twice with PBS and incubated with trypsin (PAN Biotech) for 30 min at 37°C 5% CO2. After that, cells were scraped gently from the plate and resuspended at a final concentration of 10^6 cells/ml in complete RPMI medium. Subsequently, 10^5 macrophages and 5 × 10^5 monocytes were added to each well and incubated with several concentrations of human D1D2, D1D2Fc, D1D5Fc, mouse D1D5Fc, control human IgG1 20 µg or lovastatin 100 µM at 37°C 5% CO2 overnight. Next day, every well was washed twice with PBS, complete RPMI medium was added and the number or adherent remaining cells was quantified by a MTT colorimetric test ([38]). In some experiments, plates previously coated with human and mouse D1D5Fc were used. […]
Figure 7 Human intercellular adhesion molecule (ICAM)-1 blocks LFA-1-mediated mouse macrophage cell adhesion. […] (B) Macrophage phenotype was analyzed by flow cytometry testing the expression CD11b and CD11c. […]

ICAM-1/LFA-1 interaction = details: cited from earlier work
Protocol: Human and mouse LFA-1-derived peptides (human: CD11a237–261; mouse: CD11a235–259) were purchased from GenScript (Piscataway, USA) without any modification. […] Besides, incubation cells with a mouse antiCD1 ...

Mac-1 = details: cited from earlier work
Excerpt: (§4) In contrast, cell aggregates were clearly visible in cultures after stimulation (Figure 3A, b). […] Macrophage phenotype was confirmed by testing surface antigens by flow cytometry. Monocyte-derived macrophages expressed higher levels of HLA-DR and CD14 than undifferentiated monocytes ([51]). In addition, expression of CD54 (ICAM-1) was diminished in comparison with freshly isolated monocytes (Figure 6B). […] As shown ...

VLA-4 = details: cited from earlier work
Excerpt: as §4

D1D2Fc = molecular target: T1, D1D2Fc (Homo sapiens, UniProt P05362); assay: Isothermal titration calorimetry (ITC); details: VP-ITC, D1D2Fc 12 µM titrated with peptide 150 µM, PBS, 25°C, 1:n interaction model, single type of binding sites, nonlinear regression, read-out: dissociation constant (KD)
T1 construct: The synthetic first two domains of ICAM-1 alone (D1D2) or linked with human IgG1 Fc region (D1D2Fc) were expressed in Escherichia coli; made in house; host or cells: Escherichia coli
T1 sequence (P05362 with tags, fused parts or gaps limits assumed): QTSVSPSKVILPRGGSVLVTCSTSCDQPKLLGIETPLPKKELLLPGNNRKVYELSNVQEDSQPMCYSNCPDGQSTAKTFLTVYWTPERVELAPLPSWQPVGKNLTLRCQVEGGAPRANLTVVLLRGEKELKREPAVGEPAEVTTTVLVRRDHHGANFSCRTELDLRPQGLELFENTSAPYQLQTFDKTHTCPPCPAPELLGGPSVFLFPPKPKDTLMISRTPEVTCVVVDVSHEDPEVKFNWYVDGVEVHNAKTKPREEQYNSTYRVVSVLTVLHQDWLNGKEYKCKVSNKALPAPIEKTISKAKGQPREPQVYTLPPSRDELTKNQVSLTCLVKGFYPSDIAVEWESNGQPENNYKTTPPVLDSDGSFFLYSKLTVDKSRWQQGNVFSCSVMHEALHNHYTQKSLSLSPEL
Protocol: The ability of the human chimera D1D2Fc to interact with a peptide derived from its natural ligand LFA-1 in mouse was analyzed by ITC on a VP-ITC calorimeter (MicroCal) at 25°C as indicated previously ([34]). Briefly, 2.2 ml of a 12-µM solution of D1D2Fc and 0.5 ml of a 150-µM solution of peptide were prepared in PBS and degassed. Each assay consisted of a series of 28 injections of peptide solution of 10 µl each (with a 4-µl first injection) at 400 s intervals under constant stirring (459 rpm). The thermal power required to keep the cell at a constant temperature is measured, so that it provides the heat associated with each ligand injection after integrating the signal over time. The thermodynamic parameters of protein–peptide interactions (affinity, enthalpy, and entropy changes) as well as the stoichiometry were estimated by using nonlinear regression analysis. Data were analyzed using the software developed and implemented in Origin 7.0 (OriginLab).
Figure 1 Interaction of LFA-1 peptide with D1D2Fc by isothermal titration calorimetry. Purified D1D2Fc (12 µM) was titrated with a peptide derived from the binding site of mouse LFA-1 (CD11a235–259; 150 µM). The assay was performed in PBS buffer at 25°C. The nonlinear regression analysis done as described in Section “Experimental Procedures” provided a dissociation constant of 70 nM.

[3] = system: K562 cells killed by human NK cells (ICAM-1/LFA-1); assay: NK cell-mediated cytotoxicity on K562; type: cell-based; details: peptide 250 µM, preincubation 45 min 37°C; effector:target 3:1, 4 h; annexin-V/7-AAD by FACS; vs c-Myc control; two experiments by duplicate
Protocol: The effect of human and mouse peptides derived from LFA-1 on ICAM-1/LFA-1 dependent cell–cell contact was analyzed by performing a cell cytotoxicity assay using human primary NK cells and the NK cell sensitive human leukemia K562. Primary activated human NK cells were generated by culturing PBMCs with mitomycin C inactivated R69 cells for 5 days and enriched by MACS using anti-CD56 antibodies as previously described ([39]). Cell cytotoxicity induced by NK cells on K562 was analyzed by flow cytometry as previously described ([39]). Briefly, K562 cells were preincubated with medium alone, in the presence of 250 µM of human and mouse peptides from LFA-1 or D1D2 (15 µg) for 45 min at 37°C. Then, NK cells were added at 3:1 effector:target cell ratio and incubated for 4 h at 37°C, 5% CO2. Subsequently, phosphatidylserine exposure and 7-AAD uptake were analyzed by FACS using the annexin-V/7-AAD kit from Immunostep. As a control, the cells were incubated alone with the inhibitors to evaluate their possible toxicity, which was not significant in any case.
Figure 4 Inhibition of natural killer (NK) cell-mediated cytotoxicity by human intercellular adhesion molecule-1. […] Cell death was analyzed by measuring translocation of PS by flow cytometry in the negative population for CFSE as described in experimental procedures. […]

| Compound | inhibition of B cell aggregation ([1]; lovastatin 100 µM, assigned clumping index 1) | inhibition of Tc cell-mediated cell death of EL4 ([2]; lovastatin 100 µM) | inhibition of adhesion of human monocytes (human monocytes) | inhibition of adhesion of human macrophages (human macrophages) | inhibition of adhesion of mouse macrophages (mouse macrophages) | specific block of ICAM-1/LFA-1 interaction (ICAM-1/LFA-1 interaction; ref [42], [43]) | effect on Mac-1 (Mac-1; ref [42], [43]) | inhibition of Mac-1 (Mac-1; ref [43]) | effect on VLA-4 (VLA-4; ref [42], [43]) | inhibition of VLA-4 (VLA-4; ref [43]) | Kd (D1D2Fc) | inhibition of B cell aggregation ([1]; peptide 250 µM, clumping index 1-10, two experiments by duplicate) | inhibition of NK cell-mediated cell death of K562 [3] | inhibition of Tc cell-mediated cell death of EL4 ([2]; peptide 250 µM, three experiments by duplicate) | ability to block ICAM-1/LFA-1 interaction (ICAM-1/LFA-1 interaction; ref [36]) |
| --- | --- | --- | --- | --- | --- | --- | --- | --- | --- | --- | --- | --- | --- | --- | --- |
| CC[C@H](C)C(=O)O[C@H]1C[C@@H](C)C=C2C=C[C@H](C)[C@H](CC[C@@H]3C[C@@H](O)CC(=O)O3)[C@H]21 [lovastatin, reference compound] | inhibit completely the aggregation | inhibited cell death | block completely cell adhesion | block completely cell adhesion | completely inhibit the adhesion | specifically block ICAM-1/LFA-1 interaction | without affecting | not inhibited | without affecting | not inhibited | – | – | – | – | – |
| ITDGEASDKGNISAAHDITRYIIGI [CD11a235–259] | – | – | – | – | – | – | – | – | – | – | 70 nM | completely blocked B cell aggregation | significantly inhibit cell death | able to inhibit cytotoxicity | ability to block ICAM-1/LFA-1 interaction |
